# Laboratory results as given in ChEMBL document CHEMBL5291721, “A preclinical secondary pharmacology resource illuminates target-adverse drug reaction associations of marketed drugs” (Nat Commun, 2023).
# Experiments:
# [1] = target: T1, Alpha-1A adrenergic receptor (Homo sapiens, UniProt P35348)
# T1 sequence (P35348 whole entry): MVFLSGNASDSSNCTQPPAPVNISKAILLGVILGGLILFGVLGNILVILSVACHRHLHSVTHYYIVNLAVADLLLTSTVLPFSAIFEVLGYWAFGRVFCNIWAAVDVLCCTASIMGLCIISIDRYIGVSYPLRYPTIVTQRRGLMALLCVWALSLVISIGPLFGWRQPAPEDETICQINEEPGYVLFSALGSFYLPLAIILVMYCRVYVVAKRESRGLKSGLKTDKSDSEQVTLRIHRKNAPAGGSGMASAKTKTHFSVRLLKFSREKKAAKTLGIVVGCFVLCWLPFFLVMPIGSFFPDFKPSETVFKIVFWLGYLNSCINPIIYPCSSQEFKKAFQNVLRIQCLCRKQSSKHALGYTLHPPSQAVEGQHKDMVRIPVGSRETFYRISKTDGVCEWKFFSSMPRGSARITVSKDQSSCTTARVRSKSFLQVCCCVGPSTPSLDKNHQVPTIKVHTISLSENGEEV
# [2] = target: D(1A) dopamine receptor (Homo sapiens, UniProt P21728)
# D(1A) dopamine receptor, sequence (P21728 whole entry): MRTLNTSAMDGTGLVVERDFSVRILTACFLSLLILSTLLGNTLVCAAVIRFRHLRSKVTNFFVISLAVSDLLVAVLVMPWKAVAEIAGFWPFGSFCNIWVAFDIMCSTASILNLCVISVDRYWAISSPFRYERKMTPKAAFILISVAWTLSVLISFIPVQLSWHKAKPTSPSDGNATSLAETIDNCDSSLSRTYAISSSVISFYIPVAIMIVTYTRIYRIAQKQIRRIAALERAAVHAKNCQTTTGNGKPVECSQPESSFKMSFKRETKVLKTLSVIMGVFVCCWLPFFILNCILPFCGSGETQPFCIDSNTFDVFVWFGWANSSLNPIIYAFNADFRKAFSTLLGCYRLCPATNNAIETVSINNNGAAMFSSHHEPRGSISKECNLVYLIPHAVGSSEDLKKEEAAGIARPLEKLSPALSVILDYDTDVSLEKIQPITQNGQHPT
# [3] = target: Voltage-dependent N-type calcium channel subunit alpha-1B (Rattus norvegicus, UniProt Q02294); type: functional
# Voltage-dependent N-type calcium channel subunit alpha-1B, sequence (Q02294 whole entry): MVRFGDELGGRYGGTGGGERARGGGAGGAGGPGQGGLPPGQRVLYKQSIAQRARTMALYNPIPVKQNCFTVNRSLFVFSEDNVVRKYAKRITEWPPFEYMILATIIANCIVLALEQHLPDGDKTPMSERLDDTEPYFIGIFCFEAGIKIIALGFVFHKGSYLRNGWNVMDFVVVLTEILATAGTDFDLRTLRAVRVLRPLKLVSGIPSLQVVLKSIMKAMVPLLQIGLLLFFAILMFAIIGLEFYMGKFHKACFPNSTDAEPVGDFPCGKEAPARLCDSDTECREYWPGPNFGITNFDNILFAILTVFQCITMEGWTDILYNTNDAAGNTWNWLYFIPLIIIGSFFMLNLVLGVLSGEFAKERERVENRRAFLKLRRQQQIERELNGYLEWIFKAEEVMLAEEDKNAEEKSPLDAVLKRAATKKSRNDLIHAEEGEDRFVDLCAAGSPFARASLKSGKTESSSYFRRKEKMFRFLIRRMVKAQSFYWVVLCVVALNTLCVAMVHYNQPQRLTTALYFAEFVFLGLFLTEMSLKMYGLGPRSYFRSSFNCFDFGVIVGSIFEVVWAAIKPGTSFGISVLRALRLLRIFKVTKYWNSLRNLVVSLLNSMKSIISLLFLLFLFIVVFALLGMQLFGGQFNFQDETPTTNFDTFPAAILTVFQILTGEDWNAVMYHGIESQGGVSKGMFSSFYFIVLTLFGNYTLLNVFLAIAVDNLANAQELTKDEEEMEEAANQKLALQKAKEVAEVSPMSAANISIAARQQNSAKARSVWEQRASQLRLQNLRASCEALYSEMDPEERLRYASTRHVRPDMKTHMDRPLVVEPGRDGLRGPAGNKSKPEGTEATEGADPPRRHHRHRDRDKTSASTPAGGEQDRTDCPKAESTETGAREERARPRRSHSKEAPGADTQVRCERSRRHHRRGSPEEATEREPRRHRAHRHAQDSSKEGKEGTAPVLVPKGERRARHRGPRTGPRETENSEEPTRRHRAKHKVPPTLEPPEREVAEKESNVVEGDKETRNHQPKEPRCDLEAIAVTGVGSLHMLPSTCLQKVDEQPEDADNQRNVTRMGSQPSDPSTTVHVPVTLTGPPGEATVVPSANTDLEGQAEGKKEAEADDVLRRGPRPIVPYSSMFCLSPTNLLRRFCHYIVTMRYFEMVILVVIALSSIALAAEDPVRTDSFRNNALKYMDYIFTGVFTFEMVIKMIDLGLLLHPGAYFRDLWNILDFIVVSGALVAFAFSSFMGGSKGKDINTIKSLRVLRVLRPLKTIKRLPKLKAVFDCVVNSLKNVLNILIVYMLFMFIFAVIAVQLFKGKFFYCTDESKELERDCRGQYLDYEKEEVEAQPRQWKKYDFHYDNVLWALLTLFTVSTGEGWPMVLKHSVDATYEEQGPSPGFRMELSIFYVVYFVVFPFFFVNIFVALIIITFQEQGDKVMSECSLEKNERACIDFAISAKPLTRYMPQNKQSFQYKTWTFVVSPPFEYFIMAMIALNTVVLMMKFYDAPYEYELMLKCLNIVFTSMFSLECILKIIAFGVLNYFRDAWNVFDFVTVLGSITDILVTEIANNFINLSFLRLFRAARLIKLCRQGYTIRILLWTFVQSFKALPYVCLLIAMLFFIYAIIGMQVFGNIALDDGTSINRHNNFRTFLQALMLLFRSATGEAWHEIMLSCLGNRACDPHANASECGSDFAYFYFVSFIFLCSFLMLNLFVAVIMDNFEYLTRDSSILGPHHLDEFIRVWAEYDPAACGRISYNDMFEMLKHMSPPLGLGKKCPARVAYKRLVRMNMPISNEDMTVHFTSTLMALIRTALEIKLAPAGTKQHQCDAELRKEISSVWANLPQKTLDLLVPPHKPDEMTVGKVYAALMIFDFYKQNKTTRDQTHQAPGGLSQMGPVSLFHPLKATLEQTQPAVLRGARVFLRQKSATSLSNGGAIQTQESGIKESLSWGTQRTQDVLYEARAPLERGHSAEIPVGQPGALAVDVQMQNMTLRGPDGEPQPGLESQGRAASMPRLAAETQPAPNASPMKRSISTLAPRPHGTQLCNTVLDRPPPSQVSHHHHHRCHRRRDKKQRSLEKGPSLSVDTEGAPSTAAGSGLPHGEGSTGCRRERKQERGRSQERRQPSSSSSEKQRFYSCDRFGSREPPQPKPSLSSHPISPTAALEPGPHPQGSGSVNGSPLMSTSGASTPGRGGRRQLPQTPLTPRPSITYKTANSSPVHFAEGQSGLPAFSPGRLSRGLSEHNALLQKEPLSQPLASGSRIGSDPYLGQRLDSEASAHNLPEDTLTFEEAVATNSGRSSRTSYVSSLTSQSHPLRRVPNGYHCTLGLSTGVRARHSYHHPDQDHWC
# [4] = target: T2, Corticotropin-releasing factor receptor 2 (Homo sapiens, UniProt Q13324)
# T2 sequence (Q13324 whole entry): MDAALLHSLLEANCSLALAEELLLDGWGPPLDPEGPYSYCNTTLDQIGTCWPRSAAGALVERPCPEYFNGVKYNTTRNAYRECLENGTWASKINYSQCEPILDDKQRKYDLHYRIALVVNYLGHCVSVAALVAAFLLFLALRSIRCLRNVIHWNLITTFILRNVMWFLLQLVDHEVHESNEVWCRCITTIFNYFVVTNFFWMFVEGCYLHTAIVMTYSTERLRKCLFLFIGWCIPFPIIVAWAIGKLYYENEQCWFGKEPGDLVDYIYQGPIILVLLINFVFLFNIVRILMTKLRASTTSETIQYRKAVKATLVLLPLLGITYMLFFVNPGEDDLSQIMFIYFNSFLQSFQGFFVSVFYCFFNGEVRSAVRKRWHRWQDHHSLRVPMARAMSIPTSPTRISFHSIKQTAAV
# [5] = target: Glucagon receptor (Homo sapiens, UniProt P47871)
# Glucagon receptor, sequence (P47871 whole entry): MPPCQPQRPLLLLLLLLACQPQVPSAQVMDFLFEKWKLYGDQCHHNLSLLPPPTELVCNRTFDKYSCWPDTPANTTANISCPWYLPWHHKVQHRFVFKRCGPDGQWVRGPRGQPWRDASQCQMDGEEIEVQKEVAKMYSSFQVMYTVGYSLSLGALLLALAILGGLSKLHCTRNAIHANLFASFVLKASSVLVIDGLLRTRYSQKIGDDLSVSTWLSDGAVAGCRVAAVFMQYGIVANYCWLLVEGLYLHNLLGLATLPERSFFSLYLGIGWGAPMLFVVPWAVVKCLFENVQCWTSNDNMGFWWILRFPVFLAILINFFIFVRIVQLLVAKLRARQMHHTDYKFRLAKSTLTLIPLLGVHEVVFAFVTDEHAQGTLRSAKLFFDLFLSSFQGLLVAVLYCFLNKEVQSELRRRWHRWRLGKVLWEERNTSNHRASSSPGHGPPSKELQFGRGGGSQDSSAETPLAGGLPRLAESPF
# [6] = target: T3, Gastric inhibitory polypeptide receptor (Homo sapiens, UniProt P48546)
# T3 sequence (P48546 whole entry): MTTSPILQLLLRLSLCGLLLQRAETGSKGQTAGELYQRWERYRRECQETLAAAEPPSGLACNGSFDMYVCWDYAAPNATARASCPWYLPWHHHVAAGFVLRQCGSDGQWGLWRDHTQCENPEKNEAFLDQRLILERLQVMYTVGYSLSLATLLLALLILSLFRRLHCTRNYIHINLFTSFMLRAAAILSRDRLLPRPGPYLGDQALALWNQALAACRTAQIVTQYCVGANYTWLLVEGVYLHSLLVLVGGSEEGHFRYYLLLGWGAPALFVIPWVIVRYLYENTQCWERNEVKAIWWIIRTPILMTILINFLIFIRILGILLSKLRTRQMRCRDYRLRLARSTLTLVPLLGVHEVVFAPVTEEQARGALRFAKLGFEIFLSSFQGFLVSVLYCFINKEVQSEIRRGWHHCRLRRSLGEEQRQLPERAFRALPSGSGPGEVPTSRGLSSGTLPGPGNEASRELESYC
# [7] = target: Histamine H2 receptor (Homo sapiens, UniProt P25021)
# Histamine H2 receptor, sequence (P25021 whole entry): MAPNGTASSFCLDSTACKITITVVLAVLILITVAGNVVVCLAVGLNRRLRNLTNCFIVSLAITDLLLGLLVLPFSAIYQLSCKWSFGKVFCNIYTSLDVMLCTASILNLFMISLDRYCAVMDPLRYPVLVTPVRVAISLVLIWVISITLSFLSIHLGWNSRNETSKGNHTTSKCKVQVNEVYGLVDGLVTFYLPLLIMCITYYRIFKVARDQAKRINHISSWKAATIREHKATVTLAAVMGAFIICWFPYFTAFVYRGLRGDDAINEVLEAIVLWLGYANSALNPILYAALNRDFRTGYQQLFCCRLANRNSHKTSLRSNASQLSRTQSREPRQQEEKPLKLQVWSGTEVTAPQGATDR
# [8] = target: 5-hydroxytryptamine receptor 2B (Homo sapiens, UniProt P41595)
# 5-hydroxytryptamine receptor 2B, sequence (P41595 whole entry): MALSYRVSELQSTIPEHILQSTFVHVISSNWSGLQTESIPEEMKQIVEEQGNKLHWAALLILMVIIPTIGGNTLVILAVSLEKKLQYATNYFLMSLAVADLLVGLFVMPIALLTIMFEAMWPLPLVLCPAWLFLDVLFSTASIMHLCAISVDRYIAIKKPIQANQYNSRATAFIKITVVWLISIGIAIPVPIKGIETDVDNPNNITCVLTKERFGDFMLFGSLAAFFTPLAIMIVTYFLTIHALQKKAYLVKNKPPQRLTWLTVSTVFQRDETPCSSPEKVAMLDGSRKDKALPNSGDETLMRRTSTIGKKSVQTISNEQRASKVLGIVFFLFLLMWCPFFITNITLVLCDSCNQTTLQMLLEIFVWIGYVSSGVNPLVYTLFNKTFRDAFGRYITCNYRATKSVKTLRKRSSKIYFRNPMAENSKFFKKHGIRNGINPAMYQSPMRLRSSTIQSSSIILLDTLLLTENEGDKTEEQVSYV
# [9] = target: T4, Neuropeptide Y receptor type 2 (Homo sapiens, UniProt P49146)
# T4 sequence (P49146 whole entry): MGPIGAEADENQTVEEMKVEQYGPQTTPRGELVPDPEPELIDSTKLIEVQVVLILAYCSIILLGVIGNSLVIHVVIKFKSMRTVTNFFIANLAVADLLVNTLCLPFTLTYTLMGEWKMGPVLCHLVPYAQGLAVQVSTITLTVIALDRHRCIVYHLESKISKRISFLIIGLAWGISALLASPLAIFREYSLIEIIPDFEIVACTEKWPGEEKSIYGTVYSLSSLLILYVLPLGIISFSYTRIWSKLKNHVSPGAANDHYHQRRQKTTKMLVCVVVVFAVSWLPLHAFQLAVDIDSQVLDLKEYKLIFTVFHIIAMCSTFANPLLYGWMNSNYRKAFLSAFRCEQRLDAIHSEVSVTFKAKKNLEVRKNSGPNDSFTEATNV
# [10] = target: T5, Muscarinic acetylcholine receptor M2 (Homo sapiens, UniProt P08172)
# T5 sequence (P08172 whole entry): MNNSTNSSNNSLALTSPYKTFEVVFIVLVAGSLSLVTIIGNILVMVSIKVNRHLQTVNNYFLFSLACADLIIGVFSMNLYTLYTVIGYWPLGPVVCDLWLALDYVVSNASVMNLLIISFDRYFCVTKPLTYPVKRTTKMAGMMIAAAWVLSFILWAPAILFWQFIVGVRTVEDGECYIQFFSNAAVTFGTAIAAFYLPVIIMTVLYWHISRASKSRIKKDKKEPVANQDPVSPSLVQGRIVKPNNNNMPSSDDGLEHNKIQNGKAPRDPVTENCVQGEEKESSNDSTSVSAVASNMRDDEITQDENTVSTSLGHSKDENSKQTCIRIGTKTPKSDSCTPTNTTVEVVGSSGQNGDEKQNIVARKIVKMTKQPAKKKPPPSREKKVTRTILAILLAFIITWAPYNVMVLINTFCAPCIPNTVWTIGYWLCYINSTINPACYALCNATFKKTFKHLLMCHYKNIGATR
# [11] = target: T1, Alpha-1A adrenergic receptor; remark: listed apart in the source
# [12] = target: 5-hydroxytryptamine receptor 2A (Homo sapiens, UniProt P28223)
# 5-hydroxytryptamine receptor 2A, sequence (P28223 whole entry): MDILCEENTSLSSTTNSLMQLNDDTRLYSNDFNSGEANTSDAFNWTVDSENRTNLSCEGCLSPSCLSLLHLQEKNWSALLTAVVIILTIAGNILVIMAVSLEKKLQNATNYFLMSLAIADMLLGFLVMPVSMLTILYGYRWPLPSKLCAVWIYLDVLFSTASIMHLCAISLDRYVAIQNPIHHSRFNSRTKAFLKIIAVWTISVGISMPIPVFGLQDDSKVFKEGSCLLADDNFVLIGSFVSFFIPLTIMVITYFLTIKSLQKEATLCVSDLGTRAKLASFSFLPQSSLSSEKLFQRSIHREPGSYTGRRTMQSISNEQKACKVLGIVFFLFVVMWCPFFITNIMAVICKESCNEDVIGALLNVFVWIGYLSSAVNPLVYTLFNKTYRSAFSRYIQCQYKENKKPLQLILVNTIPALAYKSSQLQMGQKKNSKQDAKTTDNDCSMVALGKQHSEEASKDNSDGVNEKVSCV
# [13] = target: Gamma-aminobutyric acid receptor subunit alpha-1/alpha-2/beta-2/gamma-2 (Homo sapiens, UniProt P14867+P18507+P47869+P47870); type: functional, cell-based
# Further: assay procedure not described here.
structure (smiles),measurement,setting,value
CCCCCCCC(=O)N[C@H](CN1CCCC1)[C@H](O)c1ccc2c(c1)OCCO2,AC50,[1],> 30 µM
same,AC50,[2],> 30 µM
C[C@]1(COc2ccc(N3CCC(Oc4ccc(OC(F)(F)F)cc4)CC3)cc2)Cn2cc([N+](=O)[O-])nc2O1,AC50,[3],> 10 µM
same,AC50,[4],> 30 µM
same,AC50,[5],> 30 µM
same,AC50,[6],> 30 µM
same,AC50,[7],> 10 µM
same,AC50,[8],> 10 µM
same,AC50,[9],> 30 µM
same,AC50,[10],> 10 µM
same,AC50,[11],> 10 µM
same,AC50,[12],> 10 µM
C[C@]12CC[C@H](O)CC1=CC[C@@H]1[C@@H]2CC[C@]2(C)C(c3cccnc3)=CC[C@@H]12 [ABIRATERONE],AC50,[12],> 10 µM
CC(=O)OCC[N+](C)(C)C [ACETYLCHOLINE],AC50,[3],> 10 µM
same,AC50,[4],> 30 µM
same,AC50,[5],> 30 µM
same,AC50,[6],> 30 µM
same,AC50,[7],> 10 µM
same,AC50,[8],> 10 µM
same,AC50,[9],> 30 µM
same,AC50,[11],> 10 µM
same,AC50,[12],> 10 µM
O=C(Nc1nc(-c2cc(Cl)cs2)c(N2CCN(C3CCCCC3)CC2)s1)c1cnc(N2CCC(C(=O)O)CC2)c(Cl)c1 [AVATROMBOPAG],AC50,[1],> 30 µM
same,AC50,[3],> 10 µM
same,AC50,[2],> 30 µM
same,AC50,[7],> 10 µM
same,AC50,[8],> 10 µM
same,AC50,[9],> 10 µM
same,AC50,[10],> 10 µM
same,AC50,[11],> 10 µM
same,AC50,[12],> 10 µM
C[C@H]1C[C@H]2[C@@H]3CCC4=CC(=O)C=C[C@]4(C)[C@@]3(Cl)[C@@H](O)C[C@]2(C)[C@@]1(O)C(=O)CO [BECLOMETHASONE],AC50,[3],> 10 µM
same,AC50,[4],> 30 µM
same,AC50,[5],> 30 µM
same,AC50,[6],> 30 µM
same,AC50,[7],> 10 µM
same,AC50,[8],> 10 µM
same,AC50,[9],> 30 µM
same,AC50,[10],> 10 µM
same,AC50,[11],> 10 µM
CO[C@@]1(NC(=O)CSCC#N)C(=O)N2C(C(=O)O)=C(CSc3nnnn3C)CS[C@@H]21 [CEFMETAZOLE],AC50,[1],> 30 µM
same,AC50,[2],> 30 µM
same,AC50,[13],> 30 µM
CO/N=C(\C(=O)N[C@@H]1C(=O)N2C(C(=O)[O-])=C(C[n+]3cccc4c3CCC4)CS[C@H]12)c1csc(N)n1 [CEFPIROME],AC50,[13],> 30 µM
Oc1c(I)cc(Cl)c2cccnc12 [CLIOQUINOL],AC50,[1],> 30 µM
same,AC50,[2],> 30 µM
same,AC50,[13],> 30 µM
COc1ccc2c(c1)[C@]13CCCC[C@@H]1[C@H](C2)N(C)CC3 [DEXTROMETHORPHAN],AC50,[3],> 10 µM
same,AC50,[4],> 30 µM
same,AC50,[5],> 30 µM
same,AC50,[6],> 30 µM
same,AC50,[7],> 10 µM
same,AC50,[8],5.8 µM
same,AC50,[9],> 30 µM
same,AC50,[10],> 10 µM
same,AC50,[11],5.22 µM
CCn1cc(C(=O)O)c(=O)c2cc(F)c(N3CCNCC3)nc21 [ENOXACIN],AC50,[3],> 10 µM
same,AC50,[4],> 30 µM
same,AC50,[5],> 30 µM
same,AC50,[6],> 30 µM
same,AC50,[7],> 10 µM
same,AC50,[8],> 10 µM
same,AC50,[9],> 30 µM
same,AC50,[10],> 10 µM
same,AC50,[11],> 10 µM
CCC(=O)O[C@@H]1CC(=O)O[C@H](C)C/C=C/C=C/[C@H](OC(C)=O)[C@H](C)C[C@H](CC=O)[C@H](O[C@@H]2O[C@H](C)[C@@H](O[C@H]3C[C@@](C)(OC(C)=O)[C@@H](OC(=O)CC)[C@H](C)O3)[C@H](N(C)C)[C@H]2O)[C@H]1OC [MIOCAMYCIN],AC50,[1],> 30 µM
same,AC50,[2],> 30 µM
C1CNCCN1 [PIPERAZINE],AC50,[1],> 30 µM
same,AC50,[2],> 30 µM
CNCCCC1c2ccccc2C=Cc2ccccc21 [PROTRIPTYLINE],AC50,[10],0.653 µM
COCCCOc1ccnc(C[S+]([O-])c2nc3ccccc3[nH]2)c1C (stereo not drawn) [RABEPRAZOLE],AC50,[3],> 10 µM
same,AC50,[4],> 30 µM
same,AC50,[5],> 30 µM
same,AC50,[6],> 30 µM
same,AC50,[7],> 10 µM
same,AC50,[8],> 10 µM
same,AC50,[9],> 30 µM
same,AC50,[10],> 10 µM
same,AC50,[11],4.98 µM
O=C(CCCN1CCC2(CC1)C(=O)NCN2c1ccccc1)c1ccc(F)cc1 [SPIPERONE],AC50,[13],> 30 µM
same,AC50,[8],0.66 µM
OCCN1CCN(CC/C=C2/c3ccccc3Sc3ccc(Cl)cc32)CC1 [ZUCLOPENTHIXOL],AC50,[8],0.0144 µM
same,AC50,[12],0.0046 µM
